These results are taken from patent US20240270741A1 (Cogent Biosciences, Inc., priority 2023, published 2024).

For this assay, the target named is FGFR2 (Homo sapiens, UniProt P21802). Description: FGFR wild type enzyme assay (HTRF KinEASE-TK), FGFR2. The settings on record: Enz FGFR2 (nM), FGFR2 wild type enzyme. (In general: TR-FRET usually uses a lanthanide donor and a delayed reading to cut background.)
FGFR2, sequence (P21802 399-821 limits assumed): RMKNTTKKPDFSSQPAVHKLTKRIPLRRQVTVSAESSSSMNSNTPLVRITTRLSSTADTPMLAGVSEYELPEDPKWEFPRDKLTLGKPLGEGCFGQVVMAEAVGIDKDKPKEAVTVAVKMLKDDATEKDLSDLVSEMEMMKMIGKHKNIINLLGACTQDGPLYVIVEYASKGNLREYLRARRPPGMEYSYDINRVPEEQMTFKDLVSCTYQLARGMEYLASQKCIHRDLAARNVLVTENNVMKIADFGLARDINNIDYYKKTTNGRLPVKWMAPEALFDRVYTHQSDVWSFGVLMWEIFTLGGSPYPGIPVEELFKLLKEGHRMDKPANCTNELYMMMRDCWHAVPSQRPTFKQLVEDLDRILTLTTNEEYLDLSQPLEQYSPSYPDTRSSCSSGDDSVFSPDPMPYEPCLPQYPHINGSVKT
Turning to `Cc1c(-c2cc(Sc3ncccc3F)c3c(C#N)cnn3c2)cnn1[C@H]1CC[C@@H](NS(C)(=O)=O)CC1` [Example 177, N-((1s,4s)-4-(4-(3-cyano-4-((3-fluoropyridin-2-yl)thio)pyrazolo[1,5-a]pyridin-6-yl)-5-methyl-1H-pyrazol-1-yl)cyclohexyl)methane-sulfonamide], half-maximal inhibition (IC50) required 1 nM.
The figure for `Cc1c(-c2cc(Sc3ncccc3F)c3c(C#N)cnn3c2)cnn1C1CCNC(C)(C)C1` (stereo not drawn) [Example 178] is 1 nM; for `Cc1c(-c2cc(Sc3ncccc3F)c3c(C#N)cnn3c2)cnn1[C@@H](C)CN(C)C` [Example 179, (S)-6-(1-(1-(dimethylamino)propan-2-yl)-5-methyl-1H-pyrazol-4-yl)-4-((3-fluoropyridin-2-yl)thio)pyrazolo[1,5-a]pyridine-3-carbonitrile] it is 3 nM; for `Cc1c(-c2cc(Sc3ncccc3F)c3c(C#N)cnn3c2)cnn1[C@H](C)CN(C)C` [Example 180, (R)-6-(1-(1-(dimethylamino)propan-2-yl)-5-methyl-1H-pyrazol-4-yl)-4-((3-fluoropyridin-2-yl)thio)pyrazolo[1,5-a]pyridine-3-carbonitrile] it is 15 nM.
In turn, `Cc1c(-c2cc(Sc3ncccc3F)c3c(C#N)cnn3c2)cnn1C[C@@H](C)N(C)C` [Example 181, (R)-6-(1-(2-(dimethylamino)propyl)-5-methyl-1H-pyrazol-4-yl)-4-((3-fluoropyridin-2-yl)thio)pyrazolo[1,5-a]pyridine-3-carbonitrile] came in with an IC50 of 7 nM.
The result for `Cc1c(-c2cc(Sc3ncccc3F)c3c(C#N)cnn3c2)cnn1C[C@H](C)N(C)C` [Example 182, (S)-6-(1-(2-(dimethylamino)propyl)-5-methyl-1H-pyrazol-4-yl)-4-((3-fluoropyridin-2-yl)thio)pyrazolo[1,5-a]pyridine-3-carbonitrile] reads 8 nM; that for `N#Cc1cnn2cc(-c3cnn4c3CNCC4)cc(Sc3ncccc3F)c12` [Example 183, 4-((3-fluoropyridin-2-yl)thio)-6-(4,5,6,7-tetrahydropyrazolo[1,5-a]pyrazin-3-yl)pyrazolo[1,5-a]pyridine-3-carbonitrile], 8 nM; that for `Cc1c(-c2cc(Sc3ncccc3F)c3c(C#N)cnn3c2)cnn1[C@H]1CC[C@@H](O)CC1` [Example 184, 4-((3-fluoropyridin-2-yl)thio)-6-(1-((1s,4s)-4-hydroxycyclohexyl)-5-methyl-1H-pyrazol-4-yl)pyrazolo[1,5-a]pyridine-3-carbonitrile], 1.6 nM.
The result for `Cc1c(-c2cc(Sc3ncccc3F)c3c(C#N)cnn3c2)cnn1[C@H]1CC[C@H](O)CC1` [Example 185, 4-((3-fluoropyridin-2-yl)thio)-6-(1-((1r,4r)-4-hydroxycyclohexyl)-5-methyl-1H-pyrazol-4-yl)pyrazolo[1,5-a]pyridine-3-carbonitrile] reads 1 nM; that for `Cc1c(-c2cc(Sc3ncccc3F)c3c(C#N)cnn3c2)cnn1[C@H]1CC[C@@H](N)CC1` [Example 186, 6-(1-((1s,4s)-4-aminocyclohexyl)-5-methyl-1H-pyrazol-4-yl)-4-((3-fluoropyridin-2-yl)thio)pyrazolo[1,5-a]pyridine-3-carbonitrile], 3 nM.
The figure for `Cc1c(-c2cc(Sc3ncccc3F)c3c(C#N)cnn3c2)cnn1[C@H]1CC[C@H](N)CC1` [Example 187, 6-(1-((1r,4r)-4-aminocyclohexyl)-5-methyl-1H-pyrazol-4-yl)-4-((3-fluoropyridin-2-yl)thio)pyrazolo[1,5-a]pyridine-3-carbonitrile] is 1 nM.
As to `Cc1c(-c2cc(Sc3ccccc3C#N)c3c(C#N)cnn3c2)cnn1[C@H]1CC[C@@H](O)CC1` [Example 188, 4-((2-cyanophenyl)thio)-6-(1-((1s,4s)-4-hydroxycyclohexyl)-5-methyl-1H-pyrazol-4-yl)pyrazolo[1,5-a]pyridine-3-carbonitrile], the IC50 is 0.5 nM.
For the molecule `Cc1c(-c2cc(Sc3ccccc3C#N)c3c(C#N)cnn3c2)cnn1[C@H]1CC[C@H](O)CC1` [Example 189, 4-((2-cyanophenyl)thio)-6-(1-((1r,4r)-4-hydroxycyclohexyl)-5-methyl-1H-pyrazol-4-yl)pyrazolo[1,5-a]pyridine-3-carbonitrile], half-maximal inhibition (IC50) was put at 0.7 nM.
The figure for `CC(=O)N1CCC[C@H](n2ncc(-c3cc(Sc4ncc(F)cc4F)c4c(C#N)cnn4c3)c2C)C1` [Example 190, (S)-6-(1-(1-acetylpiperidin-3-yl)-5-methyl-1H-pyrazol-4-yl)-4-((3,5-difluoropyridin-2-yl)thio)pyrazolo[1,5-a]pyridine-3-carbonitrile] is 3 nM; for `Cc1c(-c2cc(Sc3ncc(F)cc3F)c3c(C#N)cnn3c2)cnn1C1CCN(C(=O)CO)CC1` [Example 191, 4-((3,5-difluoropyridin-2-yl)thio)-6-(1-(1-(2-hydroxyacetyl)piperidin-4-yl)-5-methyl-1H-pyrazol-4-yl)pyrazolo[1,5-a]pyridine-3-carbonitrile] it is 4 nM.
In the case of `N#Cc1cnn2cc(-c3cnn([C@@H]4CCCNC4)c3)cc(Sc3ncccc3F)c12` [Example 192, (R)-4-((3-fluoropyridin-2-yl)thio)-6-(1-(piperidin-3-yl)-1H-pyrazol-4-yl)pyrazolo[1,5-a]pyridine-3-carbonitrile], the midpoint of inhibition, the IC50, lay at 2 nM.
`Cc1c(-c2cc(Sc3ncccc3F)c3c(C#N)cnn3c2)cnn1C1CCN(C(=O)[C@@H](C)O)CC1` [Example 193, (R)-4-((3-fluoropyridin-2-yl)thio)-6-(1-(1-(2-hydroxypropanoyl)piperidin-4-yl)-5-methyl-1H-pyrazol-4-yl)pyrazolo[1,5-a]pyridine-3-carbonitrile] had an IC50 of 2 nM.
Molecule `Cc1c(-c2cc(Sc3ncccc3F)c3c(C#N)cnn3c2)cnn1C1CCN(C(=O)[C@H](C)O)CC1` [Example 194, (S)-4-((3-fluoropyridin-2-yl)thio)-6-(1-(1-(2-hydroxypropanoyl)piperidin-4-yl)-5-methyl-1H-pyrazol-4-yl)pyrazolo[1,5-a]pyridine-3-carbonitirle] registered an IC50 of 2 nM.
`Cc1c(-c2cc(Sc3ncccc3F)c3c(C#N)cnn3c2)cnn1C1CCN(CC(=O)N(C)C)CC1` [Example 195, 2-(4-(4-(3-cyano-4-((3-fluoropyridin-2-yl)thio)pyrazolo[1,5-a]pyridin-6-yl)-5-methyl-1H-pyrazol-1-yl)piperidin-1-yl)-N,N-dimethylacetamide] came in with an IC50 of 1.4 nM.
The figure for `Cc1c(-c2cc(Sc3ncccc3F)c3c(C#N)cnn3c2)cnn1C1CCN(C(=O)[C@@H]2C[C@@H](F)CN2C)CC1` [Example 196, 6-(1-(1-((2S,4R)-4-fluoro-1-methylpyrrolidine-2-carbonyl)piperidin-4-yl)-5-methyl-1H-pyrazol-4-yl)-4-((3-fluoropyridin-2-yl)thio)pyrazolo[1,5-a]pyridine-3-carbonitrile] is 1 nM; for `Cc1c(-c2cc(Sc3ncccc3F)c3c(C#N)cnn3c2)cnn1[C@H](C)[C@H](O)CO` [Example 197, 6-(1-((2R,3S)-3,4-dihydroxybutan-2-yl)-5-methyl-1H-pyrazol-4-yl)-4-((3-fluoropyridin-2-yl)thio)pyrazolo[1,5-a]pyridine-3-carbonitrile] it is 3 nM.

By IC50 is commonly meant the midpoint of a concentration-inhibition curve. Low readings indicate inhibition by little substance, high ones a need for much substance.
